Test results taken from patent US9815796B2 (Merck Sharp & Dohme Corp., priority 2013, dated 2017).

Assays:
other PDE isoforms = conditions: reported in Brandon et al., Annual Reports in Medicinal Chemistry 42: 4-5, 2007; cited from earlier work
[1] = reported in Brandon et al., Annual Reports in Medicinal Chemistry 42: 4-5, 2007; cited from earlier work
Rhesus PDE2A3 = Rhesus PDE2A3 (Macaca mulatta, UniProt B3VTJ2); test: PDE2 fluorescence polarization (IMAP FP) inhibition assay, rhesus enzyme; type: biochemical, rhesus macaque; conditions: Rhesus PDE2, Lab A; read-out: Rhesus PDE2 Ki (nM) - Lab A
Chain of Rhesus PDE2A3 (B3VTJ2 1-941): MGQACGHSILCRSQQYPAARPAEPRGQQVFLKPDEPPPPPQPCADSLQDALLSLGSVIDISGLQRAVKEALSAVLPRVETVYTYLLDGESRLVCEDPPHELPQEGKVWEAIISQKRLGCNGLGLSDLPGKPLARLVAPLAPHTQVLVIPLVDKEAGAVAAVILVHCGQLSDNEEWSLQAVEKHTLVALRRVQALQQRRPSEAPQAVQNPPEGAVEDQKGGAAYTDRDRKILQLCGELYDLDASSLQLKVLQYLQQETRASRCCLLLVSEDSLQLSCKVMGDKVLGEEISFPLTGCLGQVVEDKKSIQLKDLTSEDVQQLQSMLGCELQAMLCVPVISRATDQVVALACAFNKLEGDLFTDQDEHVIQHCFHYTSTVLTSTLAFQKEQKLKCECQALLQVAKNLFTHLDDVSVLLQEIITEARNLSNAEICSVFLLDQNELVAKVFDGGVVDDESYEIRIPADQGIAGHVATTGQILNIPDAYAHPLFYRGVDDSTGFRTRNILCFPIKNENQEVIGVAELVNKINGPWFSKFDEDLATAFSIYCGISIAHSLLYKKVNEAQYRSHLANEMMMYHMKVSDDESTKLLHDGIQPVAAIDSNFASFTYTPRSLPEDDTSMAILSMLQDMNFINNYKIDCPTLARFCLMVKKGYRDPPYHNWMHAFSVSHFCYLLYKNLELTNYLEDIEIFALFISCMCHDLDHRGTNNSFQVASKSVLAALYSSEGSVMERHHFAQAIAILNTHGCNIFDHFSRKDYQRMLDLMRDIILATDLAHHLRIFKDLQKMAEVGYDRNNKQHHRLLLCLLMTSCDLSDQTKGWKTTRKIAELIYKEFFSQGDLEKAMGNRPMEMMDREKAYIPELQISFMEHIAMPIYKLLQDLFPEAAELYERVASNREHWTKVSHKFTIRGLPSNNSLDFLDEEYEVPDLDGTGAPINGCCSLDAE
Method in brief: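 Rhesus PDE2A3 came from lysate of transiently transfected AD293 cells, diluted to give 20% substrate conversion. Substrate was 50 nM FAM-cAMP with 1 uM cGMP activator in Tris pH 7.2/MgCl2 buffer, run 60 min at room temperature over 10-point 3-fold dilutions in 1% DMSO. Read-out was IMAP fluorescence polarization (mP) after ≥1 h binding.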

human PDE2A1 = human PDE2A1 (Homo sapiens (Human), UniProt O00408); test: IMAP FP PDE selectivity panel, human PDE2A1; type: biochemical; conditions: Human PDE2, Lab A; read-out: Human PDE2 Ki (nM) - Lab A
Chain of human PDE2A1 (O00408 other isoform, or with tags, fused parts or gaps): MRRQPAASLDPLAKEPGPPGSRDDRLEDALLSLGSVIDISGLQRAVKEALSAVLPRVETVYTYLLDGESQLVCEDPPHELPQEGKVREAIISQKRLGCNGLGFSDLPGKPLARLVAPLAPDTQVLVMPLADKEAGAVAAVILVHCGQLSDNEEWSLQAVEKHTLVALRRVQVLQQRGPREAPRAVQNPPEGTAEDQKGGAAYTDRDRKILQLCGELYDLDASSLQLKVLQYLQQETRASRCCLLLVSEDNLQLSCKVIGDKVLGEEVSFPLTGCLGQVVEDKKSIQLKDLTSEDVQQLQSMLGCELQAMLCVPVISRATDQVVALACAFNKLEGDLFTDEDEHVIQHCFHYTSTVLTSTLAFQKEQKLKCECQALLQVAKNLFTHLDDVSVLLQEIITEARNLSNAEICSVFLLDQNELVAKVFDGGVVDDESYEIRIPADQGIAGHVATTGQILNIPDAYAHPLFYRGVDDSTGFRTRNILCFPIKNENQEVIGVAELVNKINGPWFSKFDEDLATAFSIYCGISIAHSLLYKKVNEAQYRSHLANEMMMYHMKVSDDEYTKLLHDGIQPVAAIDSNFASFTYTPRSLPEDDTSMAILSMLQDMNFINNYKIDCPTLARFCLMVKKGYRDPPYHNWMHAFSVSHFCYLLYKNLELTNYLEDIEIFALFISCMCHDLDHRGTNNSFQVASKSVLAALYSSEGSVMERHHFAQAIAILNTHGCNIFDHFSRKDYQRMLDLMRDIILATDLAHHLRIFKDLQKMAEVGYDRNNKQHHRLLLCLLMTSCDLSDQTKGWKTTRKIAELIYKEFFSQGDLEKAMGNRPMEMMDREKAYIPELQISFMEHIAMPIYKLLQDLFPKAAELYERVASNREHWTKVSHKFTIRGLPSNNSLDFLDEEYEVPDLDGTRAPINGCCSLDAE
Method in brief: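 GST-tagged human PDE2A1 expressed in insect cells, run at room temperature for 60 min with 50 nM FAM-cAMP containing 1000 nM cGMP, pH 7.2 Tris/MgCl2 buffer. IMAP fluorescence polarization read after binding step.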

SMILES | potency at other PDE isoforms (other PDE isoforms) | brain penetration [1] | Ki (Rhesus PDE2A3) [nM] | Ki (human PDE2A1) [nM]
COc1ccc(Cc2nn3c([C@@H](CCCc4ccccc4)[C@@H](C)O)nc(C)c3c(=O)[nH]2)cc1OC [BAY 60-7550] | significant potency at other PDE isoforms | limited brain penetration |  | 
CC[C@@H](NC(=O)c1cc(=O)[nH]c(C)n1)c1ccc(SC(F)(F)F)cc1 [Example 29, 2-methyl-6-oxo-N-[(1R)-1-{4-[(trifluoromethyl)sulfanyl]phenyl}propyl]-1,6-dihydropyrimidine-4-carboxamide] |  |  | 9.2 | 4.9
C[C@@H](NC(=O)c1cc(=O)[nH]c(-c2ccccc2)n1)c1cc(F)c(C(F)(F)F)c(F)c1 [Example 184, N-{(1R)-1-[3,5-difluoro-4-(trifluoromethyl)phenyl]ethyl}-6-oxo-2-phenyl-1,6-dihydropyrimidine-4-carboxamide] |  |  | 20 | 20
